Experimental data reported in patent US20020058628A1, “Antioxidants and intracellular glutathione raising agents for therapeutic treatments” (priority 1998, published 2002).
“Also recorded” adds a separate entry of the source.

Columns and labels:
spinal ganglion neurons = assay: Neurite outgrowth of spinal ganglion neurons on laminin or L1; type: cell-based, rat; details: 24 hours, NGF added
Text: To determine whether compounds that are able to raise intracellular thiol levels are able to enhance the efficacy of yet a different group of cellular signaling systems, we examined the effects of NAC supplementation on the promotion of neurite outgrowth by laminin and by L1. We first determined suboptimal concentrations for the effect of these cellular adhesion molecules, which were attached to tissue culture plastic surfaces in two different manners. Laminin was directly attached to the tissue culture surface with a cross-linking chemistry that preserves the structure of extracellular matrix molecules. L1 was attached as a dimer chimera, cross-linked by an Fc region from a human immunoglobulin molecule, by first adsorbing to the plastic surface an antibody directed against the human immunoglobulin Fc domain, followed by absorption of the L1 dimer to this surface. To promote neuronal survival, nerve growth factor (NGF), the survival factor of the spinal ganglion neurons used in this experiment, was also added at different concentrations. […] After 24 hours cultures were stained with an antibody to beta-III-tubulin and neurite length per neuron was measured.

oligodendrocytes = assay: Rescue of purified oligodendrocytes from apoptosis induced by switch to DMEM alone (trophic factor withdrawal); details: for enhancement of survival factor (IFN-γ) activity compared with NAC: co-exposure with survival factor
Procedure: After 3 days of growth in DMEM-BS, the resulting cultures of pure oligodendrocytes were switched to DMEM alone, a condition that induces apoptosis unless cells are exposed to appropriate growth factors.
Cells were then switched to DMEM alone, supplemented with 10, 50 or 500 u/ml of interferon-γ, and the number of surviving cells present after a further three days was determined by MTT staining.
After 3 days in DMEM-BS, the resulting cultures of pure oligodendrocyte were switched to DMEM alone to which was added progesterone+/−1 mM NAC (FIG. 9).
After 3 days in DMEM-BS, the resulting cultures of pure oligodendrocytes were switched to DMEM alone to which was added 10 μM Trolox+/−1 mM NAC (FIG. 10).
After 3 days in DMEM-BS, the resulting cultures of pure oligodendrocyte were switched to DMEM alone to which was added (a) progesterone (63 ug/ml)+NAC (1 mM)+trolox (100 uM)+Vitamin C (10 uM) (“combination”) or (b) CNTF (10 ng/ml)+IGF-1 (50 ng/ml)+NT-3 (5 ng/ml) (“combination”).
In all conditions, the 100% value corresponds to the cell survival seen in cultures of oligodendrocyte not subjected to trophic factor withdrawal.
After 3 days in DMEM-BS, the resulting cultures of pure oligodendrocytes were switched to DMEM alone to which was added progesterone.
Purified oligodendrocytes were generated and grown as in previous examples. 3 days after plating, cells were switched either directly to the indicated conditions (open bars) or were first switched to DMEM alone for 24 hr before the indicated factors were added in an attempt to rescue the cells (black bars). Cells were counted 3 days after switch to the indicated conditions.

0-2A progenitor cells = assay: PDGF-induced division of purified 0-2A progenitor cells (BrdU incorporation, total cell number); type: cell-based, rat
Procedure: The effect of NAC on generation of 0-2A progenitors and oligodendrocytes was examined in cultures of purified 0-2A progenitors (prepared as in Example IA) exposed to platelet-derived growth factor (PDGF), the best-characterized mitogen for 0-2A progenitor cells.
NAC enhances the division-inducing effects of platelet-derived growth factor (PDGF). Purified 0-2A progenitor cells were plated on PLL-coated coverslips at a density of 3,000 cells per cover slip and exposed to PDGF (a known mitogen for these cells) at the indicated concentrations. In addition, cells were exposed to NAC at a variety of concentrations; the effects of 1 mM NAC are illustrated.
As shown previously, induction of DNA synthesis and increases in cell number by PDGF was dose-dependent.

[1] = system: embryonic sensory neurons; assay: Rescue of embryonic sensory neurons from apoptosis by NGF+NAC; type: cell-based; details: NAC + 1 or 10 ng/ml NGF on days 1 and 2, labeled on day 3; depending on NAC and NGF concentrations
Procedure: Cultures of embryonic sensory neurons were generated according to methods described in Groves et al., Dev. Biol., 159:87-104, (1993), the contents of which are incorporated herein by reference. The cells were exposed to sub-optimal doses of NGF. As shown in FIG. 4 cultures exposed to NAC and either 1 or 10 ng/ml NGF on days 1 and 2 and labeled on day 3 contained 300-1000% more neurons than those exposed to NGF alone, depending upon the concentrations of NAC and NGF applied.
Neurons were defined by morphology and by labeling with the TUJI antibody against β-tubuli (Groves, A. K., et al., Dev. Biol., 159:87-104 (1993); Moody, S. Q., et al., J. Comp. Neurol., 279:567-580 (1989)) cultures were in DMEM-BS. There was no BrdU labeling of neurons, nor was there any correlation between the extent of BrdU labeling in non-neuronal populations and the number of neurons present (data not shown). Analysis of DNA synthesis by BrdU incorporation (Gatzner, H. G., et al., Science, 318:474-475 (1982) confirmed that this increase in neuronal number was not due to cell division, strongly implicating differential cell death as the reason for the difference.
Values shown are means+/−SD for quadruplicate coverslips from the one of four experiments, all of which yielded similar results.

embryonic kidney cells = assay: EGF-induced proliferation of embryonic kidney cells; type: cell-based, rat; details: all EGF concentrations examined
Procedure: FIG. 7 was analyzed as for FIG. 1(B), but used embryonic kidney cells. The cells grown in the 96-well trays were derived by dissociation of kidney rudiments from 11 days embryonic rats. Cells were grown in DMEM-BDS+/−epidermal growth factor (at the concentrations indicated)+/−NAC.

CC(=O)N[C@@H](CS)C(=O)O [NAC, N-acetylcysteine]
neurite length on L1 with NAC versus without NAC (spinal ganglion neurons; L1 2 micrograms/ml plating concentration): enhanced
neurite length on laminin with NAC versus without NAC (spinal ganglion neurons; laminin 2 micrograms/ml plating concentration): enhanced
extent of survival, NAC in combination with Trolox (oligodendrocytes; 1 mM NAC + 10 μM Trolox, DMEM alone, 3 days): highly significant increases (**)
extent of survival, NAC in combination with Vitamin C (oligodendrocytes; 1 mM NAC + Vitamin C, DMEM alone, 3 days): highly significant increases (**)
extent of survival, NAC in combination with progesterone (oligodendrocytes; 1 mM NAC + progesterone, DMEM alone, 3 days, no RTK/RawTK agonists): highly significant increases (**)
extent of survival with CNTF in presence of NAC versus CNTF by itself (oligodendrocytes; 1 mM NAC + various concentrations of CNTF, DMEM alone, 3 days): significant increases
extent of survival with IGF-1 in presence of NAC versus IGF-1 by itself (oligodendrocytes; 1 mM NAC + various concentrations of IGF-1, DMEM alone, 3 days): significant increases
cell survival with NAC alone (oligodendrocytes; 1 mM NAC alone, DMEM alone, 3 days): did not promote oligodendrocyte survival; also recorded: did not promote cell survival
oligodendrocyte survival, cells switched directly to the indicated conditions (oligodendrocytes; Example I-(L), counted 3 days after switch): not effective at supporting oligodendrocyte survival
Survival (as % of DMEM-BS control) (oligodendrocytes; NAC 1 mM alone): 2 ± 1%
extent of survival obtained with IFN-γ when NAC is applied together (oligodendrocytes; NAC 1 mM together with IFN-γ): dramatically enhanced the extent of survival obtained
ability of PDGF to induce DNA synthesis (BrdU incorporation) on addition of NAC (0-2A progenitor cells; 1 mM NAC + PDGF): marked increase
total number of cells generated by PDGF-induced cell division on addition of NAC (0-2A progenitor cells; 1 mM NAC + PDGF): marked increase
induction of cell division by NAC alone (0-2A progenitor cells; NAC alone, BrdU incorporation and total cell number): had no effect on the induction of cell division
more neurons than with NGF alone [1]: 300-1000%
effect of NAC on EGF-induced proliferation (cell number) (embryonic kidney cells): enhanced the proliferative effects of EGF

CC(=O)[C@H]1CC[C@H]2[C@@H]3CCC4=CC(=O)CC[C@]4(C)[C@H]3CC[C@]12C [Progesterone, progesterone]
Survival (as % of DMEM-BS control) (oligodendrocytes; Progesterone 6.3 ng/ml alone): 4 ± 1%
Survival (as % of DMEM-BS control) (oligodendrocytes; Progesterone .63 ng/ml alone): 0%

Cc1c(C)c2c(c(C)c1O)CCC(C)(C(=O)O)O2 (centres unmarked) [Trolox]
Survival (as % of DMEM-BS control) (oligodendrocytes; Trolox 100 uM alone): 6 ± 5%
enhancement of survival factor (IFN-γ) activity compared with NAC (oligodendrocytes): similar, but lesser effects

O=C1O[C@H]([C@@H](O)CO)C(O)=C1O [Vitamin C]
Survival (as % of DMEM-BS control) (oligodendrocytes; 10 uM Vit C alone, Example I(J), DMEM alone, 3 days): 2 ± 3%
Survival (as % of DMEM-BS control) (oligodendrocytes; VitC 10 uM alone, Example I(K)): 1 ± 1%
enhancement of survival factor (IFN-γ) activity compared with NAC (oligodendrocytes): similar, but lesser effects

IGF-I: oligodendrocyte survival factor, growth factor
Survival (as % of DMEM-BS control) (oligodendrocytes; IGF-I 0.1 ng/ml, DMEM alone, 3 days): 1 ± 1%

PDGF
induction of DNA synthesis and increases in cell number by PDGF (0-2A progenitor cells; PDGF at the indicated concentrations): dose-dependent

B1: interferon-γ: interferon-gamma, survival factor for oligodendrocytes (protein, UniProt P01579 24-161, looked up)
Interferon gamma: QDPYVKEAENLKKYFNAGHSDVADNGTLFLGILKNWKEESDRKIMQSQIVSFYFKLFKNFKDDQSIQKSVETIKEDMNVKFFNSNKKKRDDFEKLTNYSVTDLNVQRKAIHELIQVMAELSPAAKTGKRKRSQMLFRG
oligodendrocyte survival with interferon-γ (oligodendrocytes; 10, 50 or 500 u/ml, DMEM alone, 3 days, MTT staining): promoted oligodendrocyte survival in a dose-dependent manner
